Experimental data from publication PMC10096180, “Half-Sandwich Type Platinum-Group Metal Complexes of C-Glucosaminyl Azines: Synthesis and Antineoplastic and Antimicrobial Activities” (Molecules, 2023).

Columns and labels:
[1] = tested on: Enterococcus faecalis (ATCC29212); experiment: Broth microdilution MIC, reference strain; type: cell-based; settings: 24 h, tested range 0.08–40 μM, read-out: MIC E. faecalis ATCC 29,212
Method in brief: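 EUCAST broth microdilution in Mueller–Hinton broth, inoculum 5.0 × 10^5 CFU/mL, compounds at 0.08–40 μM (twofold dilutions), 24 h at 37 °C. Plates read visually; MIC taken as lowest concentration giving ≥50% inhibition versus drug-free growth control.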

A2780 cells = experiment: MTT reduction assay, early toxicity, 4 h treatment; type: cell-based
Method in brief: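 Cells plated the day before, exposed to compounds for 4 h, then MTT 0.5 mg/mL for 40–60 min at 37 °C; reduced dye dissolved in DMSO, read at 540 nm relative to vehicle wells. IC50 by four-parameter fit; otherwise % inhibition at 100 μM.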

**Q.** With Cc1ccc(C(C)C)cc1.F[P-](F)(F)(F)(F)F.N[C@@H]1[C@@H](OCc2ccccc2)[C@H](OCc2ccccc2)[C@@H](COCc2ccccc2)O[C@H]1c1ccccn1.[Cl][Ru+] [Ru-3a] as the compound, how does the MIC [1] read?
**A.** 10 µM

**Q.** What about the IC50 (A2780 cells) of the same compound?
**A.** 8.02 µM

**Q.** And the “A2780 MTT Max Inhibition” value (A2780 cells; inhibition at maximum concentration (100 μM) where no plateau, ND = not detectable)?
**A.** >90%
